Data reported in ChEMBL document CHEMBL2375344, “Identification of pyrrolo[2,3-g]indazoles as new Pim kinase inhibitors” (Bioorg Med Chem Lett, 2013).

Key:
[1] = target: T1, Serine/threonine-protein kinase pim-3 (Homo sapiens, UniProt Q86V86); experiment: Inhibition of human full length Pim-3 using RSRHSSYPAGT as substrate assessed as residual activity at 1 uM after 30 mins in presence of [gamma-33P]ATP; values are per cent of control
[2] = target: Serine/threonine-protein kinase pim-2 (Homo sapiens) (UniProt Q9P1W9); experiment: Inhibition of human full length Pim-2 using RSRHSSYPAGT as substrate assessed as residual activity at 1 uM after 30 mins in presence of [gamma-33P]ATP; values are per cent of control
Serine/threonine-protein kinase pim-2 (Homo sapiens), sequence (Q9P1W9 whole entry, looked up): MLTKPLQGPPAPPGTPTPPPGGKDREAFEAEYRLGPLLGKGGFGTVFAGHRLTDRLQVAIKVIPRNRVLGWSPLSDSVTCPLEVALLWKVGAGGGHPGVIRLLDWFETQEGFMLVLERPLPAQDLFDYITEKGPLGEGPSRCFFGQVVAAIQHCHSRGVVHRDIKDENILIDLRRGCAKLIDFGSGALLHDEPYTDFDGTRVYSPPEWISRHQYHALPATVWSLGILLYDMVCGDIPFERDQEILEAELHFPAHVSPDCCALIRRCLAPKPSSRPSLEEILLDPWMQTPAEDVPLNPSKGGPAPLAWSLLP

[3] = target: T2, Serine/threonine-protein kinase pim-1 (Homo sapiens, UniProt P11309); experiment: Inhibition of human full length Pim-1 using RSRHSSYPAGT as substrate assessed as residual activity at 1 uM after 30 mins in presence of [gamma-33P]ATP; values are per cent of control
Target sequence in this assay (P11309 whole entry, looked up): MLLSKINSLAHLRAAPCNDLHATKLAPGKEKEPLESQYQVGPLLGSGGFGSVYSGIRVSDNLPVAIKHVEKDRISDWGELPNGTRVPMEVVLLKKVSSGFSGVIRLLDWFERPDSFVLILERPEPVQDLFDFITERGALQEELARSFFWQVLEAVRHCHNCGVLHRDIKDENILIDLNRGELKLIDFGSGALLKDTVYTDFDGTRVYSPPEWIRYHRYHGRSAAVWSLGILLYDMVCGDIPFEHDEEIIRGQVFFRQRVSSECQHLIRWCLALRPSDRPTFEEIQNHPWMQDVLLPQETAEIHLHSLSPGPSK

[4] = target: T1, Serine/threonine-protein kinase pim-3; experiment: Inhibition of human full length Pim-3 using RSRHSSYPAGT as substrate assessed as residual activity at 10 uM after 30 mins in presence of [gamma-33P]ATP; values are per cent of control
[5] = target: Serine/threonine-protein kinase pim-2 (Homo sapiens) (UniProt Q9P1W9); experiment: Inhibition of human full length Pim-2 using RSRHSSYPAGT as substrate assessed as residual activity at 10 uM after 30 mins in presence of [gamma-33P]ATP; values are per cent of control
[6] = target: T2, Serine/threonine-protein kinase pim-1; experiment: Inhibition of human full length Pim-1 using RSRHSSYPAGT as substrate assessed as residual activity at 10 uM after 30 mins in presence of [gamma-33P]ATP; values are per cent of control
Target sequence in this assay (P11309 whole entry, looked up): as the sequence (P11309 whole entry, looked up) above

[7] = target: T1, Serine/threonine-protein kinase pim-3; experiment: Inhibition of human full length Pim-3 using RSRHSSYPAGT as substrate assessed as residual activity after 30 mins in presence of [gamma-33P]ATP
[8] = target: T2, Serine/threonine-protein kinase pim-1; experiment: Inhibition of human full length Pim-1 using RSRHSSYPAGT as substrate assessed as residual activity after 30 mins in presence of [gamma-33P]ATP
Target sequence in this assay (P11309 whole entry): as the sequence (P11309 whole entry, looked up) above

SMILES	residual activity [1] [%]	residual activity [2] [%]	residual activity [3] [%]	residual activity [4] [%]	residual activity [5] [%]	residual activity [6] [%]	IC50 [7] [nM]	IC50 [8] [nM]
CCOC(=O)c1[nH]c2c([N+](=O)[O-])cc3cn[nH]c3c2c1C	72	105	78	47	97	72		
CCCc1c(C(=O)OC)[nH]c2c([N+](=O)[O-])cc3cn[nH]c3c12	50	113	110	24	85	39	546	
O=Cc1c[nH]c2c([N+](=O)[O-])cc3cn[nH]c3c12	76	117	97	25	70	27		
CCOC(=O)c1[nH]c2c(N)cc3cn[nH]c3c2c1-c1ccccc1	72	101	74	20	74	29		
CCCc1c(C(=O)OC)[nH]c2c(N)cc3cn[nH]c3c12	82	105	71	12	78	26		
CCc1[nH]c2c([N+](=O)[O-])cc3cn[nH]c3c2c1-c1ccccc1	31	77	43	36	84	51	119	230
C[Si](C)(C)c1cc2c([nH]1)c(N)cc1cn[nH]c12	67	93	94	24	111	52		
CCOC(=O)c1[nH]c2c([N+](=O)[O-])cc3cn[nH]c3c2c1-c1ccccc1	73	92	86	90	113	55		
O=[N+]([O-])c1cc2cn[nH]c2c2cc[nH]c12	78	92	102	18	80	30		
CCCc1c[nH]c2c(N)cc3cn[nH]c3c12	79	90	104	39	93	57		
Nc1cc2cn[nH]c2c2c(-c3ccccc3)c[nH]c12	68	103	111	26	92	51		
C[Si](C)(C)c1cc2c([nH]1)c([N+](=O)[O-])cc1cn[nH]c12	51	103	63	9	64	17	470	
Cc1c[nH]c2c(N)cc3cn[nH]c3c12	65	105	91	17	88	63		
CCCc1c[nH]c2c([N+](=O)[O-])cc3cn[nH]c3c12	24	66	78	6	27	54	260	
CCc1[nH]c2c(N)cc3cn[nH]c3c2c1-c1ccccc1	72	91	92	23	75	44		
CCOCc1c[nH]c2c([N+](=O)[O-])cc3cn[nH]c3c12	71	109	82	19	63	26		
Nc1cc2cn[nH]c2c2cc[nH]c12	20	99	63	4	104	17	33	460
O=[N+]([O-])c1cc2cn[nH]c2c2c(-c3ccccc3)c[nH]c12	38	82	52	21	70	28	530	1000
Cc1c[nH]c2c([N+](=O)[O-])cc3cn[nH]c3c12	77	99	68	26	61	26		
CCOC(=O)c1[nH]c2c(N)cc3cn[nH]c3c2c1C	93	102	93	26	97	61		
